The text below walks through data of ChEMBL document CHEMBL3997789, “N-(2-(arylmethylimino)ethyl)-7-chloroquinolin-4-amine derivatives, synthesized by thermal and ultrasonic means, are endowed with anti-Zika virus activity” (Eur J Med Chem, 2017).

SMILES strings stand for the structures. Bounds are passed on as bounds.

For data set [1], the system named is Zika virus. The experiment in a line: Antiviral activity against Zika virus infected in African green monkey Vero cells assessed as inhibition of viral RNA replication at 10 uM after 24 hrs by RT-PCR method relative to control. The data set is classed as functional.
Data set [2] deals with Zika virus. The data set is described as follows: Antiviral activity against Zika virus infected in African green monkey Vero cells assessed as inhibition of viral RNA replication after 24 hrs by RT-PCR method. The data set is classed as functional.
A short description of data set [3]: Cytotoxicity against African green monkey Vero cells after 72 hrs by XTT assay. The data set is classed as cell-based. The note with it: chlorocebus sabaeus.
Data set [4] concerns Zika virus. The experiment in a line: Potency index, ratio of chloroquine EC50 to test compound EC50 for Zika virus. The data set is classed as functional.
Data set [5] is described as follows: Selectivity index, ratio of CC50 for African green monkey Vero cells to EC50 for Zika virus. The data set is classed as toxicity. The conditions noted are these: read-out: Ratio CC50/EC50.
For a further data set, the system named is Vero. The experiment in a line: Cytotoxicity against African green monkey Vero cells assessed as reduction in cell viability at 10 uM after 72 hrs by XTT assay relative to control. The data set is classed as cell-based. The conditions noted are these: chlorocebus sabaeus. Background: Tetrazolium assays rely on reduction of a dye to a coloured formazan, in cell work by metabolically active cells.

As to `Oc1ccccc1C=NCCNc1ccnc2cc(Cl)ccc12`, the inhibition at 10 µM in the data set on Zika virus [1] was determined as 57%.
For the compound `O=[N+]([O-])c1ccc(C=NCCNc2ccnc3cc(Cl)ccc23)s1`, in the data set on Zika virus [2], the EC50 worked out at 1.5 µM. In addition, half-maximal cytotoxicity in data set [3] (CC50 at 72 h) was put at 478 µM. For the same compound, in the data set with Zika virus [1], the inhibition at 10 µM turned out to be 78%. Further, in the data set on Zika virus [4], the “Ratio EC50” value stood at 10. In addition, the selectivity ratio in data set [5] amounted to 318.
In the same order, the values of `Fc1ccc(C=NCCNc2ccnc3cc(Cl)ccc23)cc1` are 1.5 µM, 534 µM, 75%, 10 and 356.
In the same order, the values of `COc1cccc(C=NCCNc2ccnc3cc(Cl)ccc23)c1O` are 1.6 µM, 487 µM, 74%, 10 and 304.
As for `Clc1ccc2c(NCCN=Cc3c(Cl)cccc3Cl)ccnc2c1`, in the data set on Vero, the Activity is listed as above 80%.
`Clc1ccc2c(NCCN=Cc3ccccc3)ccnc2c1`: the concentration giving a half-maximal response (EC50) in the data set with Zika virus [2] was 1.2 µM. The compound also came in with a CC50 at 72 h in data set [3] of 489 µM. Also, the inhibition at 10 µM in the data set on Zika virus [1] was determined as 76%. The “Ratio EC50” value in the data set on Zika virus [4] is 10. In addition, in data set [5], the selectivity ratio is 407.
`COc1ccc(OC)c(C=NCCNc2ccnc3cc(Cl)ccc23)c1`: in the data set on Zika virus [1], the inhibition at 10 µM worked out at 51%.
As for `COc1cc(C=NCCNc2ccnc3cc(Cl)ccc23)cc(OC)c1OC`, in the data set on Zika virus [1], the inhibition at 10 µM turned out to be 41%.
`O=[N+]([O-])c1ccc(C=NCCNc2ccnc3cc(Cl)ccc23)o1`: the EC50 in the data set on Zika virus [2] stood at 0.8 µM. The compound also had a CC50 at 72 h in data set [3] of 412 µM. The inhibition at 10 µM in the data set with Zika virus [1] was found to be 72%. In addition, the “Ratio EC50” value in the data set on Zika virus [4] was 10. In data set [5], the selectivity ratio was 515.
For the compound `COc1ccccc1C=NCCNc1ccnc2cc(Cl)ccc12`, the inhibition at 10 µM in the data set on Zika virus [1] worked out at 70%.
Same read-out and setting: the result for `O=[N+]([O-])c1cccc(C=NCCNc2ccnc3cc(Cl)ccc23)c1` reads 59%.
`Clc1ccc2c(NCCN=Cc3cccnc3)ccnc2c1`: in the data set on Zika virus [2], the EC50 stood at 3.4 µM. In data set [3], this compound registered a CC50 at 72 h of 578 µM. Moreover, the inhibition at 10 µM in the data set with Zika virus [1] came out at 80%. Besides, the “Ratio EC50” value with Zika virus [4] is 5. Further, the selectivity ratio in data set [5] was found to be 170.
As for `Clc1ccc2c(NCCN=Cc3ccc(Br)cc3)ccnc2c1`, the inhibition at 10 µM in the data set with Zika virus [1] stood at 52%.
For the compound `O=[N+]([O-])c1ccc(C=NCCNc2ccnc3cc(Cl)ccc23)cc1`, in the data set with Zika virus [2], the EC50 was determined as 1.5 µM. The compound further had a CC50 at 72 h in data set [3] of 512 µM. Further, the inhibition at 10 µM with Zika virus [1] amounted to 82%. The “Ratio EC50” value with Zika virus [4] was found to be 10. Moreover, in data set [5], the selectivity ratio turned out to be 341.
Take `Clc1ccc(C=NCCNc2ccnc3cc(Cl)ccc23)c(Cl)c1`: the Activity in the data set on Vero was above 80%.
For the compound `COc1cccc(OC)c1C=NCCNc1ccnc2cc(Cl)ccc12`, the EC50 in the data set with Zika virus [2] was found to be 1.5 µM. In data set [3], it took 458 µM to reach half-maximal cytotoxicity (CC50 at 72 h). Besides, the inhibition at 10 µM with Zika virus [1] was 75%. Moreover, the “Ratio EC50” value in the data set with Zika virus [4] amounted to 10. Moreover, the selectivity ratio in data set [5] stood at 305.
In the same order, the values of `Clc1ccc2c(NCCN=Cc3ccncc3)ccnc2c1` are 1.5 µM, 571 µM, 74%, 10 and 380.
Consider `Cc1ccc(C=NCCNc2ccnc3cc(Cl)ccc23)cc1`, for which the inhibition at 10 µM in the data set on Zika virus [1] turned out to be 66%.
On to `Clc1ccc2c(NCCN=Cc3ccccn3)ccnc2c1`, for which, in the data set on Zika virus [1], the inhibition at 10 µM turned out to be 70%.
Consider `Oc1cccc(C=NCCNc2ccnc3cc(Cl)ccc23)c1O`, for which the Activity in the data set with Vero is above 80%.
In the case of `NCCNc1ccnc2cc(Cl)ccc12`, the inhibition at 10 µM in the data set on Zika virus [1] is 43%.
`CCN(CC)CCCC(C)Nc1ccnc2cc(Cl)ccc12` (stereo not drawn) [CHLOROQUINE]: the inhibition at 10 µM with Zika virus [1] was 47%.

Broadly, the inhibition is the share of the control response that was lost under treatment. For orientation: EC50 means the concentration giving half of the maximal effect. One may read the CC50 as the concentration at which the toxic effect on the cells reaches its halfway point.
